{
  "source": "patent US20120052122A1",
  "about": "“Treatment Of Chronic Obstructive Pulmonary Disease With Phosphodiesterase-4 Inhibitor” (Nycomed GmbH, priority 2010, published 2012)",
  "key": {"[1]": {"assay": "Non-clinical safety pharmacology and toxicity studies", "source_text": "Non-clinical data reveal no special hazard for humans based on conventional studies of safety pharmacology and repeated dose toxicity. Furthermore, there is no evidence of immunotoxic, skin sensitizing or phototoxic potential."}, "[2]": {"conditions": "in vivo"}, "rabbits": {"test_system": "rabbits", "assay": "Embryo-fetal development studies in rabbits", "type": "in vivo, rabbit", "conditions": "up to 0.8 mg/kg/day"}, "COPD patients": {"test_system": "COPD patients", "assay": "Adverse events in 14 double-blind, placebo-controlled Phase II/III studies", "type": "in vivo, human", "conditions": "14 Phase II/III studies, N = 6563", "source_text": "The population was 25 to 93 years old (median age 64), 72% were male, and 89% were white."}, "[3]": {"assay": "Human spermatogenesis study", "conditions": "500 mcg; 3-month treatment and 3-month off-treatment period"}, "patients with COPD [4]": {"test_system": "patients with COPD", "assay": "Sputum cell counts in patients with COPD"}, "mouse": {"test_system": "mouse", "assay": "Labor and delivery in the mouse", "type": "in vivo", "source_text": "Roflumilast should not be used during labor and delivery."}, "[5]": {"test_system": "unselected patients with severe COPD", "conditions": "Reference 14; cited from earlier work"}, "[6]": {"assay": "Phase I studies, single oral doses of 2,500 mcg and 5,000 mcg", "type": "in vivo, human", "conditions": "single oral doses of 2,500 mcg and one single dose of 5,000 mcg"}, "Plasma protein binding": {"assay": "Plasma protein binding", "type": "in vitro ADME"}, "clinical": {"assay": "clinical", "conditions": "human, in vivo"}, "[7]": {"test_system": "endotoxin challenged healthy volunteers", "assay": "Endotoxin challenge in healthy volunteers"}, "[8]": {"test_system": "bronchial ciliary activity", "assay": "Bronchial ciliary activity in vitro"}, "patients with COPD [9]": {"test_system": "patients with COPD", "conditions": "Reference 13; cited from earlier work"}, "PDE3": {"test_system": "PDE3", "assay": "PDE3 inhibition", "type": "biochemical", "conditions": "at the doses administered"}, "[10]": {"test_system": "cytokines and reactive oxygen species from cells and lung tissue", "assay": "Release of inflammatory mediators in experimental animals", "conditions": "cells and lung tissue in vitro and in vivo"}, "[11]": {"assay": "Blood-brain barrier penetration of radiolabeled roflumilast in rats"}, "[12]": {"conditions": "human, in vivo"}, "[13]": {"test_system": "patients with COPD and chronic cough and sputum production", "conditions": "in vivo"}, "[14]": {"test_system": "CYP 1A2, 2A6, 2B6, 2C8, 2C9, 2C19, 2D6, 2E1, 3A4/5, or 4A9/11"}, "CYP 2B6": {"test_system": "CYP 2B6", "assay": "CYP 2B6 induction in vitro"}},
  "data": [
    {"smiles": "O=C(Nc1c(Cl)cncc1Cl)c1ccc(OC(F)F)c(OCC2CC2)c1", "note": "[Roflumilast, N-(3,5-dichloropyridin-4-yl)-3-cyclopropylmethoxy-4-difluoromethoxy-benzamide]", "values": [
      {"measurement": "Immunotoxic, skin sensitizing or phototoxic potential", "setting": "[1]", "result": "no evidence"},
      {"measurement": "Delay of tmax by food intake", "setting": "[2]; human", "result": "one"},
      {"measurement": "Plasma AUC", "setting": "[2]; human", "result": 28, "unit": "ugxh/L"},
      {"measurement": "Radioactivity recovered in the urine", "setting": "[2]; human", "result": "about 70%"},
      {"measurement": "Reduction of Cmax by food intake", "setting": "[2]; human", "result": "approximately 40%"},
      {"measurement": "Time of maximum plasma concentrations after dosing, range", "setting": "[2]; human", "result": "0.5 to 2", "unit": "h"},
      {"measurement": "Time to steady state plasma concentrations", "setting": "[2]; human", "result": "approximately 4 days"},
      {"measurement": "Effect of food intake on total PDE4 inhibitory activity", "setting": "[2]", "result": "does not affect"},
      {"measurement": "Time of maximum plasma concentrations after dosing", "setting": "[2]", "result": "approximately one"},
      {"measurement": "Teratogenicity", "setting": "rabbits; oral", "result": "not teratogenic"},
      {"measurement": "Post-implantive losses", "setting": "rabbits", "result": "not seen"},
      {"measurement": "Treatment-emergent adverse event Diarrhea, incidence", "setting": "COPD patients; 250 mcg or 500 mcg per day", "result": 10, "unit": "%"},
      {"measurement": "Treatment-emergent adverse event Abdominal pain, incidence", "setting": "COPD patients", "result": 2, "unit": "%"},
      {"measurement": "Treatment-emergent adverse event Back pain, incidence", "setting": "COPD patients", "result": 3, "unit": "%"},
      {"measurement": "Treatment-emergent adverse event Decreased appetite, incidence", "setting": "COPD patients", "result": 2, "unit": "%"},
      {"measurement": "Treatment-emergent adverse event Dizziness, incidence", "setting": "COPD patients", "result": 2, "unit": "%"},
      {"measurement": "Treatment-emergent adverse event Gastritis, incidence", "setting": "COPD patients", "result": 1, "unit": "%"},
      {"measurement": "Treatment-emergent adverse event Headache, incidence", "setting": "COPD patients", "result": 4, "unit": "%"},
      {"measurement": "Treatment-emergent adverse event Insomnia, incidence", "setting": "COPD patients", "result": 2, "unit": "%"},
      {"measurement": "Treatment-emergent adverse event Nausea, incidence", "setting": "COPD patients", "result": 5, "unit": "%"},
      {"measurement": "Treatment-emergent adverse event Tremor, incidence", "setting": "COPD patients", "result": 2, "unit": "%"},
      {"measurement": "Treatment-emergent adverse event Weight decreased, incidence", "setting": "COPD patients", "result": 6, "unit": "%"},
      {"measurement": "Semen parameters or reproductive hormones", "setting": "[3]", "result": "no effects"},
      {"measurement": "Sputum neutrophils", "setting": "patients with COPD [4]", "result": "reduced"},
      {"measurement": "Oral dose with signs of tocolytic activity resulting in delivery retardation and decreased postnatal survival", "setting": "mouse", "result": "≥ 2", "unit": "mg/kg/day"},
      {"measurement": "Frequency of exacerbations", "setting": "[5]", "result": "did not significantly reduce"},
      {"measurement": "Symptoms observed at an increased rate", "setting": "[6]", "result": "headache, gastrointestinal disorders, dizziness, palpitations, lightheadedness, clamminess and arterial hypotension"},
      {"measurement": "fraction unbound", "setting": "Plasma protein binding", "result": "~0.01"},
      {"measurement": "Cmax", "setting": "clinical", "result": 8.8, "unit": "ng/mL"},
      {"measurement": "clearance", "setting": "clinical; iv", "result": "~160", "unit": "mL/min"},
      {"measurement": "half-life", "setting": "clinical; po", "result": "~17", "unit": "h"},
      {"measurement": "bioavailability", "setting": "clinical; po, 500 ug", "result": "~80", "unit": "%"},
      {"measurement": "Influx of neutrophils and eosinophils into the airways", "setting": "[7]", "result": "attenuated"},
      {"measurement": "Bronchial ciliary activity", "setting": "[8]", "result": "stimulated"},
      {"measurement": "Airway inflammation, sputum neutrophil and eosinophil counts", "setting": "patients with COPD [9]", "result": "reduces airway inflammation"},
      {"measurement": "Inhibitory effect on PDE3", "setting": "PDE3", "result": "no appreciable inhibitory effect"},
      {"measurement": "Release of inflammatory mediators (cytokines and reactive oxygen species)", "setting": "[10]", "result": "suppressed"},
      {"measurement": "Penetration across the blood-brain barrier", "setting": "[11]", "result": "low penetration"},
      {"measurement": "Absorption or pharmacokinetics on co-administration with an antacid", "setting": "[12]", "result": "did not alter"},
      {"measurement": "Increase in the total PDE4 inhibition with strong CYP 1A2 inhibitors, such as fluvoxamine", "setting": "[12]", "result": "20-60%"},
      {"measurement": "Interactions with inhaled salbutamol, formoterol, budesonide, oral theophylline, montelukast, digoxin, warfarin, sildenafil, midazolam and an oral contraceptive", "setting": "[12]", "result": "No clinically relevant interactions"},
      {"measurement": "Reduction in total PDE4 inhibitory activity with rifampicin", "setting": "[12]", "result": "about 60%"},
      {"measurement": "Total PDE4 inhibitory activity with CYP 3A4 inhibitors (erythromycin and ketoconazole)", "setting": "[12]", "result": "did not result in increases"},
      {"measurement": "Total PDE4 inhibitory activity with fluvoxamine, enoxacin and cimetidine", "setting": "[12]", "result": "resulted in increases"},
      {"measurement": "Adverse event Upper respiratory tract infection, patients", "setting": "[13]; human, 52 weeks", "result": "33 (4%) number (%)"},
      {"measurement": "Occurrence of rhythm disturbances vs placebo", "setting": "[13]", "result": "no difference"},
      {"measurement": "Inhibition of CYP 1A2, 2A6, 2B6, 2C8, 2C9, 2C19, 2D6, 2E1, 3A4/5, or 4A9/11", "setting": "[14]", "result": "do not inhibit"},
      {"measurement": "Induction of CYP 2B6", "setting": "CYP 2B6", "result": "weak induction"}
    ]}
  ]
}
